In patent publication US6664285B1, “Use of cell membrane penetrating indigoid bisindole derivatives” (priority 1999, dated 2003):
Read-outs that look alike come from different tables or passages of the source.

Legend:
LXFL 529L cells = experiment: Cellular uptake into LXFL 529L cells; conditions: for distribution cellular organelles / distribution cytosol / amount of substance within the cells: 2 hours incubation
Protocol: The compounds of Examples 1, 6 and 8 and Comparative Examples 1 and 2 were investigated with respect to their ability to penetrate LXFL 529L cells having the passage numbers P23 to P39. The amounts of the substances taken up by the cells are given depending on the concentration of the substance within the incubation medium. The time of incubation was 2 hours in all of the experiments. Furthermore, the distribution of the substance which was taken up by the cells in the cytosol and the cellular organelles (particular) was estimated and is given in the intermediate column of Table 2. Tumor cell growth inhibition was determined by the sulfo-rhodamine B assay (SRB assay) according to Skehan et al., J. Natl. Cancer Institute 82, pages 1107-1112 (1990). Incubation was conducted for three days in serum containing medium. Tumor cell lines tested were a large-cell lung carcinoma xenograft line LXFL 529 L and the mammary carcinoma line MCF-7.

[1] = test system: large-cell lung carcinoma xenograft line LXFL 529 L; experiment: Tumor cell growth inhibition, sulforhodamine B (SRB) assay; format: cell-based, human; conditions: LXFL529L; three days incubation, serum containing medium
[2] = test system: mammary carcinoma line MCF-7; experiment: as above; format: cell-based, human; conditions: MCF7; three days incubation, serum containing medium
[3] = test system: LXFL529 (lung large-cell); experiment: Colony-forming assay; format: cell-based, human
MCF7X (mammary) = experiment: Colony-forming assay; format: cell-based, human; conditions: for IC50: read-out: IC50 colony formation
OVXF1353 (ovarian) = experiment: Colony-forming assay; format: cell-based, human
Protocol: (§1) The anti-tumor activity of the compounds was evaluated via a colony-forming-assay as described e.g. by D. P. Berger et al. in Annals of Oncology 1, pages 333-341 (1 990), “The clonongenic assay with human tumor xenografts, evaluation, predictive values and application for drug screening”.
(§2) The experiments were conducted using various tumor cell lines, in particular mammary carcinoma (MAXF), lung adenocarcinoma (LXFA), large-cell lung carcinoma (LXFL), small-cell lung carcinoma (LXFS), colon carcinoma (CXF), melanoma (MEXF), pancreatic carcinoma (PAXF), renal carcinoma (RXF), ovarian carcinoma (OVXF) and bladder carcinoma (BXF).

PAXF736 (pancreatic) = experiment: Colony-forming assay; format: cell-based, human; conditions: for IC50: read-out: IC50 colony formation
[4] = test system: human tumor xenograft LXFL 529; experiment: In vivo testing in nude mice bearing subcutaneous tumor xenograft; conditions: for tumor growth (relative tumor volume) compared to the vehicle control (in words): LXFL 529/17, i.p., nude mice, FIG. 1
Protocol: Compound of Examples 1, 4, 6, 8, 9 and 10 were subjected to in vivo testing in nude mice bearing subcutaneously growing human tumor xenograft LXFL 529. The indigoid bisindole derivatives were applied intraperitoneally to the animals in doses and according to the schedule as described in Table 4.
The experiments were run for 21 or 28 days. Anti-tumor activity was evaluated comparing the median tumor volume relative to control, expressed as %T/C, wherein T is the test group and C the vehicle control group. In Table 4, anti-tumor activity is given according to an activity rate scale.

[5] = cited from earlier work
HT29X (colon) = experiment: Colony-forming assay; format: cell-based, human; conditions: colon HT29X; for IC50: read-out: IC50 colony formation
MEXF514 (melanoma) = experiment: Colony-forming assay; format: cell-based, human
OVXF1352 (ovarian) = test system: OVXF1352 (ovarian)
Protocol: as §1, §2

[6] = dosage of 100 mg/kg up to 300 mg/kg, FIG. 2 and FIG. 4
Text: A reduction of the body weight of the tested mice of more then 20% by weight in general is interpreted as a toxic dose.

[7] = test system: LXFS650 (lung small-cell); experiment: Colony-forming assay; format: cell-based, human
CXF280 (colon) = experiment: Colony-forming assay; format: cell-based, human
MX1 (mammary) = experiment: Colony-forming assay; format: cell-based, human
BXF1299 (bladder) = experiment: Colony-forming assay; format: cell-based, human
[8] = concentration of incubation 10 μM
[9] = concentration of incubation 20 μM
[10] = read-out: IC50 colony formation
[11] = Homo sapiens, read-out: IC50 colony formation

Compound: O=C1Nc2ccccc2/C1=C1/Nc2ccccc2C1=O [Example 1, Indirubin]
- uptake by the tumor cells (in words) (LXFL 529L cells; LXFL 529L cells): taken up by the tumor cells
- distribution cellular organelles (LXFL 529L cells; [8]): 93 ± 5.7%
- distribution cytosol (LXFL 529L cells; [8]): 7 ± 5.7%
- distribution cellular organelles (LXFL 529L cells; [9]): 94 ± 1.4%
- distribution cytosol (LXFL 529L cells; [9]): 6 ± 1.4%
- IC50 [1]: 9.9 ± 0.1 µM
- IC50 [2]: 4 ± 2 µM
- IC70 colony formation [3]: 35.6 µM
- IC50 [3, 10]: 25.3 µM
- IC70 colony formation (MCF7X (mammary)): 6.0 µM
- IC50 (MCF7X (mammary)): 2 µM
- IC70 colony formation (OVXF1353 (ovarian)): >30 µM
- IC50 (OVXF1353 (ovarian); [10]): 12.3 µM
- IC70 colony formation (PAXF736 (pancreatic)): >30 µM
- IC50 (PAXF736 (pancreatic)): 5.4 µM
- activity rating ([4]; 100 mg/kg/day i.p., days 1-5, 8-9): + (tumor inhibition T/C > 25-50%)
- activity rating ([4]; 200 mg/kg/day i.p., days 1-5, 8-9): ++ (tumor stasis T/C ≦ 25%)
- tumor growth (relative tumor volume) compared to the vehicle control (in words) [4]: significantly inhibited the tumor growth
- solubility in water (in words) [5]: dissolves only poorly in water

Compound: Cc1ccc2c(c1)/C(=C1/Nc3ccccc3C1=O)C(=O)N2 [Example 6, 5-Methylindirubin]
- ability to penetrate the cellular membrane / uptake compared to indirubin (Example 1) (in words) (LXFL 529L cells; LXFL 529L cells): substantially improved
- uptake by the tumor cells (in words) (LXFL 529L cells; LXFL 529L cells): taken up by the tumor cells
- amount of substance within the cells (LXFL 529L cells; [8]): 0.52 ± 0.1
- distribution cellular organelles (LXFL 529L cells; [8]): 87 ± 0.7%
- distribution cytosol (LXFL 529L cells; [8]): 13 ± 0.7%
- amount of substance within the cells (LXFL 529L cells; [9]): 0.86 ± 0.22
- distribution cellular organelles (LXFL 529L cells; [9]): 94 ± 2.8%
- distribution cytosol (LXFL 529L cells; [9]): 6 ± 2.8%
- IC50 [1]: 7.5 ± 0.5 µM
- IC50 [2]: 4.8 ± 0.5 µM
- IC70 colony formation (MCF7X (mammary)): 1.2 µM
- IC50 (MCF7X (mammary)): < 1 µM
- IC70 colony formation (PAXF736 (pancreatic)): 27.5 µM
- IC50 (PAXF736 (pancreatic)): 15.4 µM
- IC70 colony formation (HT29X (colon)): 14.4 µM
- IC50 (HT29X (colon)): < 1 µM
- IC70 colony formation (MEXF514 (melanoma)): 27.8 µM
- IC50 (MEXF514 (melanoma); [10]): 19.2 µM
- IC70 colony formation (OVXF1352 (ovarian)): >30 µM
- IC50 (OVXF1352 (ovarian); [10]): 1 µM
- activity rating ([4]; 100 mg/kg/day i.p., days 1-5, 8-12, 15, 17, 19, 22): ++ (tumor stasis T/C ≦ 25%)
- activity rating ([4]; 300 mg/kg/day i.p., days 1, 4, 8, 11, 15, 18, 22): ++ (tumor stasis T/C ≦ 25%)
- tumor growth (relative tumor volume) compared to the vehicle control (in words) [4]: significantly inhibited the tumor growth
- anti-tumor activity (in words) ([4]; dosage of 100 mg/kg up to 300 mg/kg, FIG. 1 and FIG. 3): very high anti-tumor activity
- reduction of body weight (in words) [6]: without any significant reduction of body weight

Compound: c1ccc(-c2c(-c3[nH]c4ccccc4c3-c3ccccc3)[nH]c3ccccc23)cc1 [Example 14, Bis(3-phenylindol-2-yl)]
- IC50 (HT29X (colon); Homo sapiens): 1.6 µM
- IC70 colony formation (HT29X (colon)): 3.4 µM
- IC70 colony formation [7]: 6.7 µM
- IC50 [7, 11]: 4.7 µM
- IC70 colony formation (CXF280 (colon)): 7.2 µM
- IC50 (CXF280 (colon); [11]): < 1 µM
- IC70 colony formation (MX1 (mammary)): 4.8 µM
- IC50 (MX1 (mammary); [11]): 2.8 µM
- IC70 colony formation (BXF1299 (bladder)): 6.2 µM
- IC50 (BXF1299 (bladder); [11]): 2.7 µM
- activity rating ([4]; 10 mg/kg/day i.p., days 1-5, 8-12): − (inactive T/C > 50%)
- activity rating ([4]; 100 mg/kg/day i.p., days 1-5, 8-12): + (tumor inhibition T/C > 25-50%)
- activity rating ([4]; 300 mg/kg/day i.p., days 1-5, 8-12): + (tumor inhibition T/C > 25-50%)
